{
  "source": "patent US20060035881A1",
  "about": "“Use of targeted oxidative therapeutic formulation in endodontic treatment” (priority 2004, published 2006)",
  "origin": "cited, not measured here",
  "key": {"E. coli": {"system": "E. coli", "conditions": "increasing concentration of peroxide in rabbit or human blood containing E. coli"}, "[1]": {"system": "peroxide-sensitive E. coli", "conditions": "infused into the blood of rabbits infected with peroxide-sensitive E. coli"}},
  "data": [
    {"compound": "OO", "note": "[hydrogen peroxide, Hydrogen peroxide]", "values": [
      {"measurement": "direct bactericidal activity ex vivo", "setting": "E. coli", "value": "no evidence of direct bactericidal activity"},
      {"measurement": "bactericidal effect in vivo", "setting": "[1]", "value": "no bactericidal effect"}
    ]}
  ]
}
